{"source": "paper PMC11944515", "about": "“Host-Mediated Antimicrobial Effects and NLRP3 Inflammasome Modulation by Caulerpin and Its Derivatives in Macrophage Models of Mycobacterial Infections” (Microorganisms, 2025)", "key": {"[1]": {"system": "M. tuberculosis H37Ra in RAW 264.7 macrophages", "test": "Preventive effects (pre-incubation) in M. tuberculosis-infected RAW 264.7 cells (CFU)", "format": "cell-based, Mycobacterium tuberculosis", "details": "for effect on M. tuberculosis CFU counts after pre-incubation and re-treatment: 12 h after infection", "method": "For the second cellular infection test with M. tuberculosis H37Ra, RAW 264.7 cells were seeded in 96-well culture plates at a density of 4 × 10 ^3 cells/well in DMEM medium (with 10% FBS, without antibiotics) and incubated overnight at 37 °C with 5% CO2. Cells were pre-incubated with the CP (15 µM), DE (15 µM), and CA (30 µM) compounds. Infection of RAW 264.7 cells with M. tuberculosis was performed at a multiplicity of infection of 1:1 for 3 h at 37 °C with 5% CO2 [20]. Infected RAW 264.7 were then lysed with 0.1% Triton-X100, and suspensions were diluted and plated on Middlebrook 7H10 agar plus OADC. Remaining wells were then re-treated with the test substances in DMEM medium. Macrophages were lysed after 12 h and plated on Middlebrook 7H10 containing OADC prior to CFU counting. CFU/well was determined as previously described in the infection experiments using macrophages and M. smegmatis."}, "[2]": {"system": "M. smegmatis within RAW 264.7 macrophages", "test": "Preventive effects (pre-incubation) in M. smegmatis-infected RAW 264.7 cells (CFU)", "format": "cell-based, Mycobacterium smegmatis", "details": "for reduction of bacterial loads after pre-incubation, M. smegmatis / reduction of CFU counts after re-treatment, M. smegmatis: 15 μM; for reduction of CFU counts after re-treatment, M. smegmatis: pre-incubation and re-treatment, 12 h after infection", "method": "For the second in vitro cellular infection test with M. smegmatis, RAW 264.7 were seeded in 96-well culture plates at a density of 1 × 10^4 cells/well in DMEM medium (with 10% FBS, without antibiotics) and incubated overnight at 37 °C with 5% CO2. Cells were pre-incubated with CP (15 μM), CA (30 μM), DE (15 μM), and DP (15 μM) for 8 h in DMEM medium. Infection of RAW 264.7 cells with M. smegmatis was performed at a multiplicity of infection of 1:1 for 2 h at 37 °C with 5% CO2 [20]. Infected RAW 264.7 were then lysed with 0.1% Triton–X100, and these suspensions were diluted and plated on LB agar. Remaining wells were then re-treated with the tested substances in DMEM medium. Macrophages were lysed after 12 h, and these suspensions were diluted and plated on LB prior to CFU counting. CFU/well was determined as previously described in the infection experiments using macrophages and M. smegmatis."}, "[3]": {"system": "Vero E6 cells", "test": "Cytotoxicity on Vero E6 cells (MTT)", "format": "cell-based, monkey", "details": "24 h; for effect on Vero E6 cell viability: 30 to 120 µM, MTT; for IC50: Primates, Vero C1008, estimated", "method": "(§1) Cytotoxicity was evaluated using the MTT method. For this purpose, two cell lines were tested: Vero E6 and HepG2. Both cell lines were seeded at 1 × 10^4 cells/well in 96-well microtiter plates and incubated overnight to adhere. The culture medium was carefully aspirated and replaced with 100 µL DMEM plus 100 µL of test compound solutions (CP, CA, and DE), yielding final concentrations ranging from 30 to 120 µM (1% DMSO, v/v). Cells were incubated with test compounds for 24 h at 37 °C in a 5% CO2 atmosphere. MTT solution (0.5 mg/mL) was subsequently added, and cells were incubated for an additional 3 h. The resulting formazan crystals were dried at room temperature for 24 h and dissolved in DMSO. Absorbance was measured at 570 nm (microplate reader EL800, BioTek, Winooski, VT, USA). Cell viability was calculated as previously described in the RAW 264.7 cell viability assay section."}, "[4]": {"system": "M. smegmatis within RAW 264.7 macrophages", "test": "Therapeutic potential in M. smegmatis-infected RAW 264.7 cells (CFU)", "format": "cell-based, Mycobacterium smegmatis", "details": "24 h of treatment after infection; for reduction of bacterial burden, M. smegmatis within RAW 264.7: 15 μM, vs untreated controls", "method": "For the first in vitro infection test with M. smegmatis, RAW 264.7 were seeded in 96-well culture plates at a density of 1 × 10^4 cells/well in DMEM medium (with 10% FBS, without antibiotics) and incubated overnight at 37 °C with 5% CO2 [20]. Infection of RAW 264.7 cells with M. smegmatis mc^2155 was performed at a multiplicity of infection of 1:1 for 2 h at 37 °C with 5% CO2. The medium with non-internalized bacteria was removed, and infected cells were then treated with the tested substances in DMEM: CP (15 µM, 7.5 µM and 3.25 µM), CA (30 µM, 15 µM, 7.5 µM and 3.25 µM), DE (15 µM, 7.5 µM and 3.25 µM), and DP (15 µM, 7.5 µM and 3.25 µM). Macrophages were lysed after 24 h with 0.1% Triton–X100, and these suspensions were diluted and plated on LB. CFU was determined after incubation of plates for 3 days at 37 °C. CFU numbers were expressed as log (CFU/well)."}, "[5]": {"system": "Artemia salina", "test": "Artemia salina toxicity test", "details": "24 h; for effect on A. salina nauplii survival: 30 to 120 µM; for IC50: Artemia salina, estimated", "method": "Artemia salina (brine shrimp) survival was determined after incubation with CP and its analogues following the method described by Magalhães et al.. A. salina cysts were purchased from a local aquarium store and hatched (0.5 g cysts/L) in modified artificial seawater (35 g/L sea salt) supplemented with dried yeast (6 mg/L). Aeration was provided using an aquarium air pump connected to a line extending to the bottom of the hatching vessel. After 2 days incubation (in a 23–25 °C room), nauplii were collected using a Pasteur pipette after attracting the organisms to one side of the vessel with a light source. Test compounds were serially diluted 2-fold (ranging from 30 to 120 µM) in 96-well microplates containing 100 µL of 0.9% NaCl solution with dried yeast (6 mg/L). All experiments were performed in quadruplicate with a final DMSO concentration of 2.5%. Vehicle control wells (with 2.5% DMSO) were included in the experiment. A suspension containing 8–12 nauplii in 100 µL was added to each well, and the plates were incubated at 23–25 °C for 24 h. The number of live and dead (non-motile) nauplii in each well was then counted under a microscope. Nauplii were considered dead if they remained immobile for 10 s under light exposure. The survival percentage for each test group was calculated relative to the control group (2.5% DMSO), which was set as 100%."}, "[6]": {"system": "HepG2 cells", "test": "Cytotoxicity on HepG2 cells (MTT)", "format": "cell-based, human", "details": "24 h; for effect on HepG2 cell viability: 30 to 120 µM, MTT; for IC50: Homo sapiens, HepG2, estimated", "method": "as §1"}, "[7]": {"details": "8 h pre-incubation, immediately after 2 h of infection"}}}
{"smiles": "COC(=O)/C1=C/c2c([nH]c3ccccc23)/C(C(=O)OC)=C\\c2c1[nH]c1ccccc21", "note": "[CP, Caulerpin]", "values": [{"measurement": "effect on M. tuberculosis CFU counts after pre-incubation and re-treatment", "setting": "[1]; 15 μM", "value": "significant reductions in CFU counts"}, {"measurement": "reduction of bacterial loads after pre-incubation, M. smegmatis", "setting": "[2]; [7]", "value": 0.360, "unit": "log10"}, {"measurement": "reduction of CFU counts after re-treatment, M. smegmatis", "setting": "[2]", "value": 0.287, "unit": "log10"}, {"measurement": "effect on Vero E6 cell viability", "setting": "[3]", "value": "did not significantly reduce cell viability"}, {"measurement": "IC50", "setting": "[3]", "value": "> 120", "unit": "µM"}, {"measurement": "reduction of bacterial burden, M. smegmatis within RAW 264.7", "setting": "[4]", "value": 0.230, "unit": "log10 CFU"}, {"measurement": "effect on A. salina nauplii survival", "setting": "[5]", "value": "did not affect nauplii survival rates"}, {"measurement": "IC50", "setting": "[5]", "value": "> 120", "unit": "µM"}, {"measurement": "effect on HepG2 cell viability", "setting": "[6]", "value": "did not significantly reduce cell viability"}, {"measurement": "IC50", "setting": "[6]", "value": "> 120", "unit": "µM"}]}
{"smiles": "CCOC(=O)/C1=C/c2c([nH]c3ccccc23)/C(C(=O)OCC)=C\\c2c1[nH]c1ccccc21", "note": "[DE, (6E,13E)-diethyl 5,12-dihydrocycloocta[1,2-b:5,6-b′]diindole-6,13-dicarboxylate]", "values": [{"measurement": "effect on M. tuberculosis CFU counts after pre-incubation and re-treatment", "setting": "[1]; 15 μM", "value": "significant reductions in CFU counts"}, {"measurement": "effect of pre-incubation on M. tuberculosis bacterial loads", "setting": "[1]; 15 μM, immediately after 3 h of infection", "value": "significantly reduced bacterial loads"}, {"measurement": "reduction of bacterial loads after pre-incubation, M. smegmatis", "setting": "[2]; [7]", "value": 0.402, "unit": "log10"}, {"measurement": "reduction of CFU counts after re-treatment, M. smegmatis", "setting": "[2]", "value": 0.182, "unit": "log10"}, {"measurement": "effect on Vero E6 cell viability", "setting": "[3]", "value": "did not significantly reduce cell viability"}, {"measurement": "IC50", "setting": "[3]", "value": "> 120", "unit": "µM"}, {"measurement": "reduction of bacterial burden, M. smegmatis within RAW 264.7", "setting": "[4]", "value": 0.430, "unit": "log10 CFU"}, {"measurement": "effect on A. salina nauplii survival", "setting": "[5]", "value": "did not affect nauplii survival rates"}, {"measurement": "IC50", "setting": "[5]", "value": "> 120", "unit": "µM"}, {"measurement": "effect on HepG2 cell viability", "setting": "[6]", "value": "did not significantly reduce cell viability"}, {"measurement": "IC50", "setting": "[6]", "value": "> 120", "unit": "µM"}]}
{"smiles": "O=C(O)C1=Cc2c([nH]c3ccccc23)C(C(=O)O)=Cc2c1[nH]c1ccccc21", "note": "[CA, caulerpinic acid]", "values": [{"measurement": "effect on M. tuberculosis CFU counts after pre-incubation and re-treatment", "setting": "[1]; 30 μM", "value": "significant reductions in CFU counts"}, {"measurement": "decrease of CFU counts after pre-incubation, M. smegmatis", "setting": "[2]; 30 μM, 8 h pre-incubation, immediately after 2 h of infection", "value": 0.407, "unit": "log10"}, {"measurement": "effect on Vero E6 cell viability", "setting": "[3]", "value": "did not significantly reduce cell viability"}, {"measurement": "IC50", "setting": "[3]", "value": "> 120", "unit": "µM"}, {"measurement": "reduction of bacterial counts, M. smegmatis within RAW 264.7", "setting": "[4]; 30 μM", "value": 0.243, "unit": "log10"}, {"measurement": "effect on A. salina nauplii survival", "setting": "[5]", "value": "did not affect nauplii survival rates"}, {"measurement": "IC50", "setting": "[5]", "value": "> 120", "unit": "µM"}, {"measurement": "effect on HepG2 cell viability", "setting": "[6]", "value": "did not significantly reduce cell viability"}, {"measurement": "IC50", "setting": "[6]", "value": "> 120", "unit": "µM"}]}
